Results from patent US20260232678A1, “Nasal Spray for Phosphodiesterase Inhibitors” (Cyrano Therapeutics, Inc., priority 2022, published 2026).

How the values were obtained:
[1] = test system: phantosmia and phantogeusia; experiment: Treatment of phantosmia in a subject; type: in vivo; conditions: thioridazine composition in nasal spray device, 3× daily in each naris
Source text: A subject is admitted to a clinic for phantosmia and phantogeusia. The subject is prescribed a thioridazine composition in a nasal spray device described herein. The subject administers the nasal spray in an effective dose 3× daily in each naris. The nasal spray is characterized by a spray containing a D50 of about 15 μm to about 24 μm, a D90 of from about 30 μm to about 50 μm and where less than about 3% of the droplets in the plume of a spray have a size of less than about 10 μm.

[2] = test system: chemosensory dysfunction associated with Parkinson's disease; experiment: Treatment of Parkinson's disease chemosensory dysfunction; type: in vivo, human; conditions: about 0.4 ml per day of 3.1 mg/ml theophylline, nasal spray twice daily in each naris, 7 days
Protocol: An adult human subject was treated for chemosensory dysfunction associated with Parkinson's disease. […] The subject was administered about 0.4 ml per day of a liquid composition comprising theophylline at a concentration of 3.1 mg/ml in a nasal spray device described herein. The subject administered the nasal spray twice daily in each naris.

[3] = cited from earlier work

| SMILES | symptoms of the phantosmia and phantogeusia [1] | ability to taste and smell [2] | solubility in ethanol ([3]; ethanol) [mg/mL] | solubility in water ([3]; water) [mg/mL] |
| --- | --- | --- | --- | --- |
| CSc1ccc2c(c1)N(CCC1CCCCN1C)c1ccccc1S2 (stereo not shown) [thioridazine] | reduced symptoms |  |  |  |
| Cn1c(=O)c2[nH]cnc2n(C)c1=O [Theophylline, theophylline] |  | regained their ability to taste and smell | 14 to 15 | 7 to 8 |
